Here are results for 88 molecules from PubChem BioAssay AID588568 (The Scripps Research Institute Molecular Screening Center, 2011).

Values joined by “and” are separate entries in the source; they are usually repeats but may differ in a detail not shown here. Equal values may be shown once. Active and inactive are the calls of the source. The rule behind the calls is not given here.

In the test the target is Melanin-concentrating hormone receptor 1 (Homo sapiens) (UniProt Q99705). The test can be described thus: antagonist activity at MCH receptor 1 – cell-based, fluorescence, set 4, counter-screen for GPR7 antagonist project, dose response (AID 588568). The conditions noted are these: MCHR1-expressing cells, fluorescence antagonist assay; for inhibition: at 20 µM (top of the series). In general terms: The purpose of a counterscreen is to sort out artefacts and off-target activity.

By IC50 is commonly meant the concentration at which inhibition is half-maximal. `COc1ccc(Oc2c(Cl)c(-c3ccc(OC)cc3)nn(Cc3ccccc3C)c2=O)cc1`: under “run 1”, the IC50 was > 20 µM (inactive).

For the molecule `COc1ccc(Oc2c(Cl)cnn(Cc3ccc(C(C)C)cc3)c2=O)cc1`, the IC50 (run 1) was > 20 µM (inactive).

In the case of `COc1ccc(Oc2c(Cl)cnn(Cc3ccc(Cl)cc3Cl)c2=O)cc1`, where the note is “run 1”, the half-inhibitory concentration (IC50) was 1.45 µM.

As for `COc1ccc(Oc2c(Cl)c(-c3ccc(C(F)(F)F)cc3)nn(Cc3ccccc3C)c2=O)cc1`, the IC50 result (run 1) was “inactive”.

On to `COc1ccc(Oc2c(C)c(C)nn(Cc3ccccc3C)c2=O)cc1`, for which the IC50 (run 1) was 7.31 µM.

For the molecule `COc1ccc(Oc2c(Cl)cnn(-c3ccc(C4=CCCCC4)cc3)c2=O)cc1`, the IC50 (run 1) is 5.13 µM.

With `CCCCCCCn1ncc(Cl)c(Oc2ccc(OC)cc2)c1=O`, under “run 1”, the IC50 entry is “inactive”.

For the molecule `COc1ccc(Oc2c(Cl)c(C3=CCCCC3)nn(Cc3ccccc3C)c2=O)cc1`, under “run 1”, the concentration for half-maximal inhibition (IC50) is 3.57 µM.

With `COc1ccc(Oc2cnn(Cc3cccc4ccccc34)c(=O)c2Br)cc1`, the IC50 (run 1) is > 20 µM (inactive).

As for `COc1ccc(Oc2c(Cl)cnn(C3=Nc4cc(Cl)ccc4Oc4ccccc43)c2=O)cc1`, the IC50 (run 1) was 1.11 µM.

With `COCn1ncc(Cl)c(Oc2ccc(OC)cc2)c1=O`, the IC50 (run 1) is > 20 µM (inactive).

`COc1ccc(Oc2c(Cl)cnn(-c3ccc(C)cc3C)c2=O)cc1`: the IC50 (run 1) was 8.91 µM.

For `COc1ccc(Oc2c(OC)nn(-c3cccc(C)c3)c(=O)c2Oc2ccc(OC)cc2)cc1`, under “run 1”, the IC50 result is “inactive”.

In the case of `CN(C)Cc1ccc(Oc2c(Cl)cnn(Cc3cccc4ccccc34)c2=O)cc1`, the IC50 (run 1) was > 20 µM (inactive).

`Cc1ccccc1Cn1ncc(Oc2ccc(CO)cc2)c(Cl)c1=O`: where the note is “run 1”, the IC50 is 6.54 µM.

With `COc1ccc(Oc2c(Cl)c(OC)nn(-c3cccc(C)c3)c2=O)cc1`, the IC50 (run 1) was 8.55 µM.

With `COc1ccc(Oc2c(Cl)cnn(-c3ccc(C(F)(F)F)cc3)c2=O)cc1`, the half-maximal inhibitory concentration (IC50) by setting is: (run 1) 9.6 µM; (run 2) 9.81 µM.

As to `CC(C)c1ccc(Oc2c(Cl)cnn(Cc3cccc4ccccc34)c2=O)cc1`, the concentration for half-maximal inhibition (IC50) (run 1) was 8.08 µM.

Regarding `O=C(c1cnn(-c2ccc(Cl)cc2)c1C(F)(F)F)N1CCN(c2ccc([N+](=O)[O-])cc2)CC1`, for the setting “run 1”, the half-inhibitory concentration (IC50) was 1.64 µM.

`Cc1cccc(Cn2ncc(Oc3ccc(CO)cc3)c(Cl)c2=O)c1`: the half-inhibitory concentration (IC50) (run 1) is 5.16 µM.

`NCc1ccc(Oc2c(Cl)cnn(Cc3cccc4ccccc34)c2=O)cc1`: for the setting “run 1”, the IC50 entry was “inactive”.

For the molecule `CCCCCc1ccc(-n2ncc(Cl)c(Oc3ccc(OC)cc3)c2=O)cc1`, where the note is “run 1”, the IC50 was 9.78 µM.

Consider `CCOc1ccc(Oc2ccnn(Cc3cccc4ccccc34)c2=O)cc1`, for which the IC50 (run 1) is 4.6 µM.

Take `Cc1ccc(CN2CCCCC2C(=O)N2CCN(c3ccc([N+](=O)[O-])cc3)CC2)cc1C` (centres undefined): under “run 1”, the half-inhibitory concentration (IC50) was 3.3 µM.

Regarding `COc1ccc(Oc2c(Cl)cnn(C(c3ccccc3)c3ccccc3C)c2=O)cc1` (centres undefined), the IC50 entry (run 1) was “inactive”.

On to `Cc1cc(C)cc(-n2ncc(Cl)c(Oc3ccc(-c4ccccc4)cc3)c2=O)c1`, for which the IC50 (run 1) is 8.03 µM.

In the case of `COc1ccc(Oc2c(-c3ccsc3)c(-c3ccsc3)nn(Cc3ccccc3C)c2=O)cc1`, the IC50 (run 1) was > 20 µM (inactive).

With `COc1ccc(Oc2c(Cl)cnn(-c3cccc(Br)c3)c2=O)cc1`, the IC50 (run 1) is 2.92 µM.

As to `COc1ccc(Oc2c(Cl)cnn(CC3CCCCC3)c2=O)cc1`, where the note is “run 1”, the IC50 entry was “inactive”.

Turning to `COc1ccc(Oc2c(Cl)cnn(C(CO)c3ccccc3)c2=O)cc1` (centres undefined), for the setting “run 1”, the IC50 result was “inactive”.

With `COc1ccc(Oc2c(Cl)cnn(CC3CCC3)c2=O)cc1`, for the setting “run 1”, the inhibition result is “inactive”.

On to `CC(C)c1ccc(-n2ncc(Cl)c(Oc3ccc(O)cc3)c2=O)cc1`, for which, for the setting “run 1”, the IC50 was > 20 µM (inactive).

With `COc1ccc(Oc2c(C#N)cnn(Cc3ccccc3C)c2=O)cc1`, the IC50 (run 1) was > 20 µM (inactive).

Turning to `Cc1cc(C)cc(Cn2[nH]cc(Oc3ccc(CO)cc3)c(=O)c2=O)c1`, under “run 1”, the concentration for half-maximal inhibition (IC50) is 2.32 µM.

With `CC(C)Oc1ccc(Oc2c(Cl)cnn(Cc3cccc4ccccc34)c2=O)cc1`, the IC50 result (run 1) is “inactive”.

As for `COc1ccc(Oc2c(Cl)cnn(Cc3c(OC)ccc4ccccc34)c2=O)cc1`, the half-maximal inhibitory concentration (IC50) (run 1) was 6.18 µM.

Consider `COCc1ccc(Oc2c(Cl)cnn(Cc3cccc4ccccc34)c2=O)cc1`, for which the IC50 (run 1) was > 20 µM (inactive).

As for `Cc1cc(C)cc(-n2ncc(Cl)c(Oc3ccc(CO)cc3)c2=O)c1`, the IC50 (run 1) was 2.25 µM.

As for `CCCCOC(=O)C(c1ccccc1Cl)n1ncc(Cl)c(Oc2ccc(OC)cc2)c1=O` (centres undefined), the IC50 entry (run 1) was “inactive”.

As to `COc1ccc(Oc2c(Cl)cnn(C3=Nc4ccccc4Oc4ccccc43)c2=O)cc1`, the half-inhibitory concentration (IC50) (run 1) is 2.68 µM.

With `COc1ccc(Oc2c(Br)nn(-c3cccc(C)c3)c(=O)c2Oc2ccc(OC)cc2)cc1`, the IC50 (run 1) was 1.66 µM.

For `O=c1c(Oc2ccc(Oc3ccccc3)cc2)c(Cl)cnn1Cc1cccc2ccccc12`, the IC50 (run 1) is > 20 µM (inactive).

For the molecule `COc1ccc(Oc2c(Cl)cnn(C(COC(C)=O)c3cccc4ccccc34)c2=O)cc1` (centres undefined), the IC50 (run 1) was > 20 µM (inactive).

`COc1ccc(Oc2c(Cl)cnn(-c3ccc(-c4ccccc4)cc3)c2=O)cc1`: the IC50 (run 1) is 7.26 µM and 4.63 µM.

As to `COc1ccc(Oc2c(Cl)cnn(-c3ccccc3)c2=O)cc1`, the IC50 result (run 1) was “inactive”.

For `COc1ccc(Oc2c(Cl)cnn(C(c3ccccc3)c3cccc4ccccc34)c2=O)cc1` (centres undefined), for the setting “run 1”, the IC50 is > 20 µM (inactive).

For the molecule `CCOc1ccc(Oc2c(N3CCCCC3)cnn(Cc3cccc4ccccc34)c2=O)cc1`, the inhibition entry (run 1) was “inactive”.

In the case of `C=Cc1ccc(Cn2ncc(Cl)c(Oc3ccc(OC)cc3)c2=O)cc1`, the IC50 (run 1) was 9.05 µM.

With `CCOc1ccc(Oc2c(N)cnn(Cc3cccc4ccccc34)c2=O)cc1`, under “run 1”, the half-inhibitory concentration (IC50) was 5.02 µM.

For the molecule `COc1ccc(Oc2c(Cl)c(C)nn(Cc3ccccc3C)c2=O)cc1`, the IC50 (run 1) was 3.89 µM.

For the molecule `Cc1cccc(Cn2ncc(Cl)c(Oc3ccc(CO)cc3)c2=O)c1`, the IC50 (run 1) was > 11.5 µM (inactive).

Consider `O=c1c(Oc2ccc(OC(F)(F)F)cc2)c(Cl)cnn1C1c2ccccc2-c2ccccc21`, for which, where the note is “run 1”, the IC50 is > 20 µM (inactive).

Turning to `COc1ccc(Oc2c(Cl)cnn(-c3nc4ccccc4c4ccccc34)c2=O)cc1`, the IC50 (run 1) is > 20 µM (inactive).

Consider `Cc1cc(C)cc(-n2ncc(Cl)c(Oc3ccc(Oc4ccccc4)cc3)c2=O)c1`, for which, under “run 1”, the IC50 is 2.24 µM.

Take `COc1ccc(Oc2c(Cl)cnn(C(c3ccccc3)c3c(C)noc3C)c2=O)cc1` (centres undefined): under “run 1”, the IC50 was > 20 µM (inactive).

Take `COc1ccc(Oc2c(Cl)cnn(CC(=O)c3ccc(C)cc3C)c2=O)cc1`: the IC50 (run 1) is 2.64 µM.

Take `CCOc1ccc(Oc2c(Cl)cnn(-c3cc(C)cc(C)c3)c2=O)cc1`: the half-maximal inhibitory concentration (IC50) (run 1) is 2.41 µM.

For `COc1ccc(Oc2c(Cl)cnn(Cc3ccc(C(F)(F)F)cc3)c2=O)cc1`, the IC50 (run 1) was 1.78 µM.

Regarding `COc1ccc(Oc2c(Cl)cnn(C(CO)c3cccc4ccccc34)c2=O)cc1` (centres undefined), the IC50 (run 1) was 9.05 µM.

As to `CCCC(=O)OCC(c1cccc2ccccc12)n1ncc(Cl)c(Oc2ccc(OC)cc2)c1=O` (centres undefined), where the note is “run 1”, the IC50 was > 20 µM (inactive).

`COc1ccc(Oc2c(Cl)cnn(Cc3ccc4c(c3)OCO4)c2=O)cc1`: where the note is “run 1”, the 50% inhibitory concentration (IC50) is 7.57 µM.

As to `O=c1c(Oc2ccc(OC(F)(F)F)cc2)c(Cl)cnn1Cc1cccc2ccccc12`, the IC50 result (run 1) was “inactive”.

In the case of `O=c1c(Oc2ccc3occc3c2)c(Cl)cnn1Cc1cccc2ccccc12`, for the setting “run 1”, the IC50 was > 20 µM (inactive).

On to `O=c1c(Oc2ccc(CO)cc2)c(Cl)cnn1Cc1cccc2ccccc12`, for which the IC50 (run 1) was 6.75 µM.

Take `Cc1cc(CN2CCCCC2C(=O)N2CCN(c3ccc([N+](=O)[O-])cc3)CC2)ccc1Cl` (centres undefined): where the note is “run 1”, the 50% inhibitory concentration (IC50) is 1.42 µM.

Consider `COc1ccc(Oc2c(Cl)cnn(C3=Nc4ccccc4Sc4ccccc43)c2=O)cc1`, for which the IC50 (run 1) was > 20 µM (inactive).

With `COc1ccc(Oc2c(Cl)cnn(-c3ccc(-c4ccc(C)cc4)cc3)c2=O)cc1`, under “run 1”, the IC50 is > 20 µM (inactive).

For the molecule `COc1ccc(Oc2c(Cl)c(-c3ccccc3)nn(Cc3ccccc3C)c2=O)cc1`, for the setting “run 1”, the IC50 was 8.7 µM.

As for `CCc1ccc(Oc2c(Cl)cnn(C3c4ccccc4-c4ccccc43)c2=O)cc1`, the IC50 (run 1) is > 20 µM (inactive).

For `O=C(C1CCCN1Cc1ccc(Cl)c(Cl)c1)N1CCN(c2ccc([N+](=O)[O-])cc2)CC1` (centres undefined), the IC50 (run 1) was 2.13 µM.

In the case of `COc1ccc(Oc2c(Cl)cnn(C(C)c3cccc4ccccc34)c2=O)cc1` (centres undefined), the IC50 (run 1) was 8.69 µM.

As for `CCOc1ccc(Oc2c(NC(=O)OC(C)(C)C)cnn(Cc3cccc4ccccc34)c2=O)cc1`, where the note is “run 1”, the IC50 was > 20 µM (inactive).

As to `COc1ccc(Oc2c(Cl)cnn(Cc3ccc(C4CCCCC4)c4ccccc34)c2=O)cc1`, the IC50 (run 1) was > 20 µM (inactive).

Regarding `COc1ccc(Oc2c(Cl)cnn(-c3ccc(OC(C)C)cc3)c2=O)cc1`, the half-maximal inhibitory concentration (IC50) (run 1) is 6.5 µM.

Regarding `Cc1cc(C)cc(-n2nc(C#N)c(=O)[nH]c2=O)c1`, the IC50 (run 1) was > 20 µM (inactive).

Regarding `COc1ccc(Oc2c(/C=N\O)cnn(Cc3cccc4ccccc34)c2=O)cc1`, the IC50 entry (run 1) is “inactive”.

Regarding `COc1ccc(Oc2c(Cl)cnn(Cc3ccc(F)cc3Cl)c2=O)cc1`, the IC50 (run 1) is 4.16 µM.

As to `Cc1ccc(-n2ncc(Cl)c(Oc3ccc(O)cc3)c2=O)cc1`, the IC50 (run 1) was > 20 µM (inactive).

In the case of `COc1ccc(Oc2c(Cl)cnn(Cc3ccc(OC(C)C)c(C#N)c3)c2=O)cc1`, the concentration for half-maximal inhibition (IC50) (run 1) is 5.54 µM.

For `COc1ccc(Oc2c(Cl)cnn(Cc3ccc(C)c(C)c3)c2=O)cc1`, the IC50 (run 1) was 5.1 µM.

Take `COc1ccc(Oc2c(Cl)cnn(C(C(=O)OCCC3CCCC3)c3ccccc3Cl)c2=O)cc1` (centres undefined): for the setting “run 1”, the IC50 was > 20 µM (inactive).

Consider `COc1ccc(Oc2c(Cl)cnn(Cc3c(Cl)cccc3Cl)c2=O)cc1`, for which, under “run 1”, the IC50 was 7.65 µM.

Take `COc1ccc(Oc2c(Cl)cnn(Cc3ccc(F)c4ccccc34)c2=O)cc1`: the IC50 (run 1) was 2.49 µM.

Consider `CC(=O)OCc1ccc(Oc2c(Cl)cnn(Cc3cccc4ccccc34)c2=O)cc1`, for which the 50% inhibitory concentration (IC50) (run 1) is 6 µM.

As to `O=c1c(Oc2ccc(CCl)cc2)c(Cl)cnn1Cc1cccc2ccccc12`, the IC50 (run 1) was 7.92 µM.

`COc1ccc(Oc2c(Cl)c(-c3ccc(C)cc3)nn(Cc3ccccc3C)c2=O)cc1`: for the setting “run 1”, the IC50 was 6.43 µM.

Regarding `COc1ccc(Oc2c(Cl)cnn(Cc3ccc(Cl)c(C)c3)c2=O)cc1`, the IC50 result (run 1) was “inactive”.

For `COc1ccc(Oc2c(Cl)cnn(-c3ccc4ccccc4c3)c2=O)cc1`, the IC50 (run 1) was 0.438 µM.
